Test system: Cotton (Gossypium hirsutum) of the variety DP 1050 B2BRF
Experiment: Field trial: percentage of open bolls in cotton after in-furrow application (earliness)
Assay type: in vivo
Details: application rate 841 g/ha, in furrow by spreading, visual inspection
Excerpt: Cotton (Gossypium hirsutum) of the variety DP 1050 B2BRF was planted in a field trial in Brooks, Ga., United States in May 2013. Temik (comprising the active ingredient Aldicarb ([2-methyl-2-(methylthio) propionaldehyde O-(methylcarbamoyl)oxime]) and Fluopyram in combination with Imidacloprid (Velum® Total, Bayer CropScience) were applied in furrow at the same day. Temik was used for controlling insects in cotton and was provided as a Granule Release formulation with 15% (w/w) active ingredient and was applied at a rate of 841 g of active ingredient/ha by spreading. Fluopyram in combination with Imidacloprid (Velum® Total) was used as a Soluble Concentrate (SC) formulation with a concentration of 440 g/l active ingredient in total, thereof 180 g/l Fluopyram and 260 g/l Imidacloprid and these combinations were applied separately at three different rates of 321.5 g of total active ingredient/ha, 450 g of total active ingredient/ha, and 578.7 g of total active ingredient/ha by spraying. The percentage of open bolls was assessed by visual inspection at three times after application.

SMILES: CNC(=O)ON=CC(C)(C)SC [Aldicarb, 2-methyl-2-(methylthio) propionaldehyde O-(methylcarbamoyl)oxime]
- percentage of open bolls, 97 Days after Application BBCH 76 (97 days after application, BBCH 76): 12.5%
- percentage of open bolls, 104 Days after Application BBCH 77 (104 days after application, BBCH 77): 17.5%
- percentage of open bolls, 111 Days after Application BBCH 78 (111 days after application, BBCH 78): 30.0%
